Results: ChEMBL document CHEMBL5154826, “Discovery of the Clinical Candidate MAK683: An EED-Directed, Allosteric, and Selective PRC2 Inhibitor for the Treatment of Advanced Malignancies” (J Med Chem, 2022)
Values after ≈ are worked out from the molar mass of the structure shown.

Tests used:
[1] = Dose normalized AUC in Sprague-Dawley rat at 2 mg/kg, po or 1 mg/kg, iv after 1 week by LC-MS/MS analysis; assay type: ADME, organism-based; conditions: in vivo, 168 h, time 1 weeks
[2] = Dose normalized Cmax in wild type Beagle dog at 2 mg/kg, po or 1 mg/kg, iv after 1 week by LC-MS/MS analysis; assay type: ADME, organism-based, Canis lupus familiaris; conditions: in vivo, 168 h, time 1 weeks
[3] = High throughput solubility of the compound in FeSSIF after 16 to 24 hrs by MS/MS analysis; assay type: physicochemical; conditions: time 16-24 hrs
[4] = Oral biovailability in ICR (CD-1) mouse at 2 mg/kg, po; assay type: ADME, organism-based; conditions: in vivo
[5] = Permeability across apical to basolateral side in human Caco-2 cells at 10 uM incubated for 2 hrs by LC/MS/MS analysis; assay type: ADME, cell-based; conditions: Caco-2, read-out: permeability
[6] = Dose normalized AUC in ICR (CD-1) mouse at 2 mg/kg, po or 1 mg/kg, iv after 1 week by LC-MS/MS analysis; assay type: ADME, organism-based; conditions: in vivo, 168 h, time 1 weeks
[7] = Terminal half life in Sprague-Dawley rat at 2 mg/kg, po or 1 mg/kg, iv after 1 week by LC-MS/MS analysis; assay type: ADME, organism-based; conditions: in vivo, time 1 weeks, read-out: beta t1/2 (converted)
[8] = Metabolic stability in dog microsomes assessed as intrinsic clearance; assay type: ADME, Canis lupus familiaris, Microsome; conditions: read-out: CLH
[9] = Dose normalized Cmax in ICR (CD-1) mouse at 2 mg/kg, po or 1 mg/kg, iv after 1 week by LC-MS/MS analysis; assay type: ADME, organism-based; conditions: in vivo, 168 h, time 1 weeks
[10] = Plasma clearance in dog; assay type: ADME, cell-free, Canis lupus familiaris
[11] = High throughput solubility of the compound at pH 1 after 16 to 24 hrs by MS/MS analysis; assay type: physicochemical; conditions: buffer, time 16-24 hrs
[12] = Plasma protein binding in human at 1 uM measured after 6 hrs LC-MS/MS analysis; assay type: ADME, cell-free; conditions: read-out: PPB (converted)
[13] = Terminal half life in wild type Beagle dog at 2 mg/kg, po or 1 mg/kg, iv after 1 week by LC-MS/MS analysis; assay type: ADME, organism-based, Canis lupus familiaris; conditions: in vivo, time 1 weeks, read-out: beta t1/2 (converted)
[14] = High throughput solubility of the compound at pH 7 after 16 to 24 hrs by MS/MS analysis; assay type: physicochemical; conditions: buffer, time 16-24 hrs, read-out: solubility
Cytochrome P450 3A4 = Cytochrome P450 3A4 (Homo sapiens, UniProt P08684); test: Inhibition of CYP3A4 in human liver microsomes using midazolam as substrate incubated for 10 mins in presence of NADPH by LC-MS/MS analysis; assay type: ADME, Microsome
Sequence of Cytochrome P450 3A4 (P08684 whole entry): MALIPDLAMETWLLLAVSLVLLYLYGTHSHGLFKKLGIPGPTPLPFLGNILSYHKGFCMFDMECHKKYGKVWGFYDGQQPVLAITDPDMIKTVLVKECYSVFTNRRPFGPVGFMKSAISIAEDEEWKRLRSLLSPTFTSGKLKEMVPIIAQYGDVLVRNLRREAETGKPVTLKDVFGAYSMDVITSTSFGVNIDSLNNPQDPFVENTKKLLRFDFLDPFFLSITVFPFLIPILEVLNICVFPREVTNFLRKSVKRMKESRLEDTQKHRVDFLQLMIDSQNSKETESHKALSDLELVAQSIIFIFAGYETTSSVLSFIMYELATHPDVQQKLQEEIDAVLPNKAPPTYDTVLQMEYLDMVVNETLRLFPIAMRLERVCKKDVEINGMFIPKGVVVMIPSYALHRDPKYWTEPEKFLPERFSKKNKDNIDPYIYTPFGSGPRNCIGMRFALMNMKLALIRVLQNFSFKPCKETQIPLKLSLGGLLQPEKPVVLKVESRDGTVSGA

[15] = Oral biovailability in Beagle dog at 2 mg/kg, po; assay type: ADME, organism-based, Canis lupus familiaris; conditions: in vivo
Cytochrome P450 2D6 = Cytochrome P450 2D6 (Homo sapiens, UniProt P10635); test: Inhibition of CYP2D6 in human liver microsomes using bufuralol as substrate incubated for 10 mins in presence of NADPH by LC-MS/MS analysis; assay type: ADME, Microsome
Sequence of Cytochrome P450 2D6 (P10635 whole entry): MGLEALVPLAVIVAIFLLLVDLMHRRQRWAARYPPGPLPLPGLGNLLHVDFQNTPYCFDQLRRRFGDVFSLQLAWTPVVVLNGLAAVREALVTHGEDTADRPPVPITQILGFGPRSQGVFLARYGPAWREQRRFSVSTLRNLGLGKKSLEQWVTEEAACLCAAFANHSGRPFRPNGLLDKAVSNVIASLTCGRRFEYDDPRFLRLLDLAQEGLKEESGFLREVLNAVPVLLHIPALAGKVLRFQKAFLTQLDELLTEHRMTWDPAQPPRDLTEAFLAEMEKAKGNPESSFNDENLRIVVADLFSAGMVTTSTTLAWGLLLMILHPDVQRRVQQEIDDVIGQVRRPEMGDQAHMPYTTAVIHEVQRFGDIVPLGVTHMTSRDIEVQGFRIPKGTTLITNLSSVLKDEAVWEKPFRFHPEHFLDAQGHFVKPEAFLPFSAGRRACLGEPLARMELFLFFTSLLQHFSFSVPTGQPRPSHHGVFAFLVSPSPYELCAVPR

[16] = Antitumor activity against human Karpas-422 cells xenografted Athymic BALB/c nude mouse assessed as minimum effective dose administered twice a day for 30 days; assay type: functional; conditions: KARPAS-422, 720 h, time 30 day, read-out: MED
[17] = Volume of distribution at steady state in wild type Beagle dog at 2 mg/kg, po or 1 mg/kg, iv after 1 week by LC-MS/MS analysis; assay type: ADME, organism-based, Canis lupus familiaris; conditions: in vivo, 168 h, time 1 weeks
[18] = Oral bioavailability in Sprague-Dawley rat at 2 mg/kg; assay type: ADME, organism-based; conditions: in vivo
[19] = Plasma protein binding in human assessed as unbound fraction at 1 uM measured after 6 hrs LC-MS/MS analysis; assay type: ADME, cell-free
[20] = Dose normalized AUC in wild type Beagle dog at 2 mg/kg, po or 1 mg/kg, iv after 1 week by LC-MS/MS analysis; assay type: ADME, organism-based, Canis lupus familiaris; conditions: in vivo, 168 h, time 1 weeks
[21] = High throughput solubility of the compound in SGF after 16 to 24 hrs by MS/MS analysis; assay type: physicochemical; conditions: time 16-24 hrs
[22] = Plasma protein binding in mouse at 1 uM measured after 6 hrs LC-MS/MS analysis; assay type: ADME, cell-free; conditions: read-out: PPB (converted)
[23] = Metabolic stability in human microsomes assessed as intrinsic clearance; assay type: ADME, Microsome; conditions: read-out: CLH
[24] = Metabolic stability in rat microsomes assessed as intrinsic clearance; assay type: ADME, Microsome; conditions: read-out: CLH
[25] = Intrinsic clearance in mouse hepatocytes measured per 10^6 cells; assay type: ADME, cell-based, Hepatocyte; conditions: read-out: CLH
[26] = High throughput solubility of the compound in FaSSIF after 16 to 24 hrs by MS/MS analysis; assay type: physicochemical; conditions: time 16-24 hrs
[27] = molecular target: T1, Alpha-2C adrenergic receptor (Homo sapiens, UniProt P18825); test: Inhibition of alpha2c adrenergic receptor (unknown origin)
T1 sequence (P18825 whole entry): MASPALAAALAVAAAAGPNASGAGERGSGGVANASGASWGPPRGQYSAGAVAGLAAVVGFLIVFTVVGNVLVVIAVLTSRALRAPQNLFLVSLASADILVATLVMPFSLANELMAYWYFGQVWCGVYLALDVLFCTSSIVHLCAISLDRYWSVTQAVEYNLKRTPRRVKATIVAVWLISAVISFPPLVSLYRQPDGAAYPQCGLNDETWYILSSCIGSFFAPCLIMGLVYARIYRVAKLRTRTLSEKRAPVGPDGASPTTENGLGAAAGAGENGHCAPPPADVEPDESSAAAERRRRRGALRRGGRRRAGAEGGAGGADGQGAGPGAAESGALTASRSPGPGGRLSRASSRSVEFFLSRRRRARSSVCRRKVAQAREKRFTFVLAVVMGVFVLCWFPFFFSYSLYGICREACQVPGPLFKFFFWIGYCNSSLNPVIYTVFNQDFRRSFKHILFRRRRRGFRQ

[28] = Metabolic stability in mouse microsomes assessed as intrinsic clearance; assay type: ADME, Microsome; conditions: read-out: CLH
[29] = Dissociation constant, pKa of compound; assay type: physicochemical
[30] = Intrinsic clearance in rat hepatocytes measured per 10^6 cells; assay type: ADME, cell-based, Hepatocyte; conditions: read-out: CLH
[31] = Plasma protein binding in rat at 1 uM measured after 6 hrs LC-MS/MS analysis; assay type: ADME, cell-free; conditions: read-out: PPB (converted)
[32] = Permeability across basolateral to apical side in human Caco-2 cells incubated for 2 hrs by LC/MS/MS analysis; assay type: ADME, cell-based; conditions: read-out: permeability
[33] = Volume of distribution at steady state ICR (CD-1) mouse at 2 mg/kg, po or 1 mg/kg, iv after 1 week by LC-MS/MS analysis; assay type: ADME, organism-based; conditions: in vivo, 168 h, time 1 weeks
[34] = Volume of distribution at steady state in Sprague-Dawley rat at 2 mg/kg, po or 1 mg/kg, iv after 1 week by LC-MS/MS analysis; assay type: ADME, organism-based; conditions: in vivo, 168 h, time 1 weeks
[35] = Terminal half life in ICR (CD-1) mouse at 2 mg/kg, po or 1 mg/kg, iv after 1 week by LC-MS/MS analysis; assay type: ADME, organism-based; conditions: in vivo, time 1 weeks, read-out: beta t1/2 (converted)
[36] = Dose normalized Cmax in Sprague-Dawley rat at 2 mg/kg, po or 1 mg/kg, iv after 1 week by LC-MS/MS analysis; assay type: ADME, organism-based; conditions: in vivo, 168 h, time 1 weeks
KARPAS-422 = test: Antiproliferative activity against human KARPAS-422 cells expressing EZH2 mutant assessed as inhibition of cell growth after 14 days by beckman coulter counting method; assay type: functional; conditions: time 14 day
Cytochrome P450 2C9 = Cytochrome P450 2C9 (Homo sapiens, UniProt P11712); test: Inhibition of CYP2C9 in human liver microsomes using diclofenac as substrate incubated for 10 mins in presence of NADPH by LC-MS/MS analysis; assay type: ADME, Microsome
Sequence of Cytochrome P450 2C9 (P11712 whole entry): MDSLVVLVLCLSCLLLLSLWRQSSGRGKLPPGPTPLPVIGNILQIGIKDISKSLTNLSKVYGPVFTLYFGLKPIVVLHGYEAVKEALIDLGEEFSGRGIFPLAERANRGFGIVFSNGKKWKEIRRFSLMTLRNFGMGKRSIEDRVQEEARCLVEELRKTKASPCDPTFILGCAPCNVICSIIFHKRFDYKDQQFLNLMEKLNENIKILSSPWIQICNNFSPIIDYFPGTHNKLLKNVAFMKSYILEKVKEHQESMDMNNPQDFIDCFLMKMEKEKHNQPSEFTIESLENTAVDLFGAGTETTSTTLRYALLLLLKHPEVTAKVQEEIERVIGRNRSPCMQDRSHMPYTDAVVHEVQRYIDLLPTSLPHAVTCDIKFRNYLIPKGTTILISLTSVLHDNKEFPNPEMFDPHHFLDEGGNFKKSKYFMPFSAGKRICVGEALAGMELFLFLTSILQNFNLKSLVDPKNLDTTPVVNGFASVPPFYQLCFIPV

[37] = Plasma protein binding in dog at 1 uM measured after 6 hrs LC-MS/MS analysis; assay type: ADME, cell-free, Canis lupus familiaris; conditions: read-out: PPB (converted)
[38] = Intrinsic clearance in human hepatocytes measured per 10^6 cells; assay type: ADME, cell-based, Hepatocyte; conditions: read-out: CLH
[39] = Plasma clearance in rat; assay type: ADME, cell-free
[40] = Intrinsic clearance in dog hepatocytes measured per 10^6 cells; assay type: ADME, cell-based, Canis lupus familiaris, Hepatocyte; conditions: read-out: CLH
[41] = Free plasma concentration in Athymic BALB/c nude mouse xenografted with human Karpas-422 cells at 20 mg/kg, po after 12 hrs by HPLC-MS/MS analysis; assay type: ADME, organism-based; conditions: in vivo
[42] = Lipophilicity, logD of the compound at pH 7.4 by LC with tandem MS analysis; assay type: physicochemical; conditions: buffer, read-out: logD

For `COc1cccc(F)c1CNc1ccc(-c2cnc(C)nc2C)c2nncn12`, which AUC/dose [1] is on record?
The AUC/dose was 2127 nM·h.

What about the Cmax/dose [2] of the same compound?
Its Cmax/dose is 590 nM.

And the solubility [3]?
The solubility was 86 µM (≈ 32.5 µg/mL).

What about the bioavailability [4] of the same compound?
The bioavailability was 132%.

And the Papp A→B at 2 h, 10 µM [5]?
Its Papp A→B at 2 h, 10 µM is 7.2 ×10⁻⁶ cm/s.

And the AUC/dose [6]?
Its AUC/dose is 1032 nM·h.

And the half-life [7]?
The half-life was 1.1 h.

And the microsomal CLint [8]?
The microsomal CLint was 10 µL/min/mg.

And the Cmax/dose [9]?
The Cmax/dose was 288 nM.

And the clearance [10]?
Its clearance is 13 mL/min/kg.

And the solubility [11]?
The solubility was greater than 13000 µM.

What about the fraction unbound at 6 h, 1 µM [12] of the same compound?
Its fraction unbound at 6 h, 1 µM is 0.13.

And the half-life [13]?
Its half-life is 2 h.

What about the solubility [14] of the same compound?
The solubility was 2.6 µM (≈ 0.984 µg/mL).

What about the IC50 (Cytochrome P450 3A4) of the same compound?
The IC50 was greater than 20 µM.

What about the bioavailability [15] of the same compound?
The bioavailability was 68%.

What about the IC50 (Cytochrome P450 2D6) of the same compound?
Its IC50 is greater than 20 µM.

What about the minimal effective dose [16] of the same compound?
The minimal effective dose was 7 mg/kg.

And the Vdss [17]?
Its Vdss is 2.1 L/kg.

And the bioavailability [18]?
Its bioavailability is 109%.

What about the fraction unbound at 6 h, 1 µM [19] of the same compound?
Its fraction unbound at 6 h, 1 µM is 0.13.

And the AUC/dose [20]?
The AUC/dose was 2392 nM·h.

What about the solubility [21] of the same compound?
The solubility was 173 µM (≈ 65.5 µg/mL).

What about the fraction unbound at 6 h, 1 µM [22] of the same compound?
The fraction unbound at 6 h, 1 µM was 0.12.

And the microsomal CLint [23]?
The microsomal CLint was 9 µL/min/mg.

And the microsomal CLint [24]?
The microsomal CLint was 11 µL/min/mg.

What about the hepatocyte CLint [25] of the same compound?
The hepatocyte CLint was 3.6 µL/min/1e6 cells.

And the solubility [26]?
The solubility was 34 µM (≈ 12.9 µg/mL).

What about the IC50 [27] of the same compound?
Its IC50 is 8.7 µM.

And the microsomal CLint [28]?
Its microsomal CLint is 21 µL/min/mg.

What about the pKa [29] of the same compound?
The pKa was 3.3.

And the hepatocyte CLint [30]?
The hepatocyte CLint was 3.2 µL/min/1e6 cells.

What about the fraction unbound at 6 h, 1 µM [31] of the same compound?
The fraction unbound at 6 h, 1 µM was 0.1.

And the Papp B→A at 2 h [32]?
Its Papp B→A at 2 h is 42 ×10⁻⁶ cm/s.

What about the Vdss [33] of the same compound?
The Vdss was 7.5 L/kg.

What about the Vdss [34] of the same compound?
The Vdss was 2.4 L/kg.

What about the half-life [35] of the same compound?
The half-life was 2.2 h.

And the Cmax/dose [36]?
Its Cmax/dose is 387 nM.

What about the GI50 (KARPAS-422; Homo sapiens, KARPAS-422, 336 h) of the same compound?
The GI50 was 6.7 µM.

What about the GI90 (KARPAS-422) of the same compound?
Its GI90 is 32 µM.

And the IC50 (Cytochrome P450 2C9)?
The IC50 was greater than 20 µM.

What about the fraction unbound at 6 h, 1 µM [37] of the same compound?
Its fraction unbound at 6 h, 1 µM is 0.15.

And the hepatocyte CLint [38]?
Its hepatocyte CLint is less than 2.3 µL/min/1e6 cells.

And the clearance [39]?
Its clearance is 22 mL/min/kg.

What about the hepatocyte CLint [40] of the same compound?
The hepatocyte CLint was less than 2.3 µL/min/1e6 cells.

And the “Cp(f)” value [41]?
Its value is 32 nM.

What about the logD [42] of the same compound?
Its logD is 3.8.
